Like-named read-outs stand apart in the source and are kept apart here.

In one experiment the target is HIV-1 protease (Human immunodeficiency virus type 1 group M subtype B, UniProt P04585). The experiment can be described thus: biochemical. The note with it: Table 12; HIV-1 protease; read-out: Ki.
The next experiment has as its system HIV-1 (strain IIIB). The experiment can be described thus: microbe, parasite or virus in culture. It counts as cell-based. The note with it: read-out: IC50.
Where [1] appears, read: Human immunodeficiency virus 1, IIIB, MT4, Table 12, anti-viral potency in MT-4 cells.
Where [2] appears, read: Human immunodeficiency virus 1, IIIB, MT4, Table 13, MT-4 cell based assay, class symbol.
[3] abbreviates: Table 12, anti-viral potency in MT-4 cells.

On to `COc1ccc(S(=O)(=O)N(CC(C)CCC#N)CC(O)C(Cc2ccccc2)NC(=O)OC2CCOC2)cc1` [Compound 8, (3S)-Tetrahydro-3-furanyl N-((1S,2R)-1-benzyl-3-[(2RS)-4-cyano-2-methyl][(4-methoxyphenyl)sulfonyl]amino-2-hydroxypropyl)carbamate], for which the Ki – broadly, a dissociation constant, usually derived from enzyme kinetics or from competition with a known ligand – on HIV-1 protease was less than 1 nM. The IC50 (commonly the point on the concentration scale where inhibition reaches its midpoint) in the experiment on HIV-1 (strain IIIB) (setting [1]) is no more than 100 nM.

In the case of `CCC(CCC#N)CN(CC(O)C(Cc1ccccc1)NC(=O)OC1CCOC1)S(=O)(=O)c1ccc(OC)cc1` [Compound 9, (3S)-Tetrahydro-3-furanyl N-((1S,2R)-1-benzyl-3-[(2RS)-4-cyano-2-ethyl][(4-methoxyphenyl)sulfonyl]amino-2-hydroxypropyl)carbamate], the Ki at HIV-1 protease is less than 1 nM. Besides, in the experiment on HIV-1 (strain IIIB) (setting [1]), the IC50 was greater than 1000 nM.

As to `CC(C)(CCC#N)CN(CC(O)[C@H](Cc1ccccc1)NC(=O)OC1COC2OCCC12)S(=O)(=O)c1cccc(N)c1` (stereo partly drawn) [Compound 10, (3S,3aR,6aS)-Hexahydrofuro[2,3-b]furan-3-yl N-((1S,2R)-3-[(3-aminophenyl)sulfonyl](4-cyano-2,2-dimethylbutyl)-amino-1-benzyl-2-hydroxypropyl)carbamate], the Ki at HIV-1 protease was less than 1 nM. In addition, the IC50 with HIV-1 (strain IIIB) (setting [1]) is no more than 100 nM.

For `COc1ccc(S(=O)(=O)N(CC(O)C(Cc2ccccc2)NC(=O)OC2COC3OCCC23)CC(C)(C)CCC#N)cc1` [Compound 11, (3S,3aR,6aS)-Hexahydrofuro[2,3-b]furan-3-yl N-((1S,2R)-1-benzyl-3-(4-cyano-2,2-dimethylbutyl)[(4-methoxyphenyl)sulfonyl]amino-2-hydroxypropyl)carbamate], the Ki on HIV-1 protease was less than 1 nM. In addition, the IC50 in the experiment on HIV-1 (strain IIIB) (setting [1]) was no more than 100 nM.

Turning to `CNc1cccc(S(=O)(=O)N(C[C@@H](O)[C@H](Cc2ccccc2)NC(=O)O[C@H]2CO[C@H]3OCC[C@H]32)CC(C)(C)CCC#N)c1` [Compound 12, (3R,3aS,6aR)-Hexahydrofuro[2,3-b]furan-3-yl N-[(1S,2R)-1-benzyl-3-((4-cyano-2,2-dimethylbutyl)[3-(methylamino)-phenyl]sulfonylamino)-2-hydroxypropyl]carbamate], at HIV-1 protease, the inhibitory constant (Ki) was less than 1 nM. For the same compound, the values for the IC50 in the experiment on HIV-1 (strain IIIB) (setting [1]) and in the experiment with HIV-1 (strain IIIB) (setting [2]) were no more than 100 nM and 1 to 10 nM, respectively.

On to `CC(C)(CCC#N)CN(CC(O)[C@H](Cc1ccccc1)NC(=O)OC1COC2OCCC12)S(=O)(=O)c1cccc(N)c1` (stereo partly drawn) [Compound 16, (3R,3aS,6aR)-Hexahydrofuro[2,3-b]furan-3-yl N-((1S,2R)-3-[(3-aminophenyl)sulfonyl](4-cyano-2,2-dimethylbutyl)amino-1-benzyl-2-hydroxypropyl)carbamate], for which, on HIV-1 protease, the Ki is less than 1 nM. The IC50 in the experiment on HIV-1 (strain IIIB) (setting [3]) was no more than 100 nM.

For `CCC(CC)(CCC#N)CN(C[C@@H](O)[C@H](Cc1ccccc1)NC(=O)O[C@H]1CCOC1)S(=O)(=O)c1ccc(OC)cc1` [Compound 17, (3S)-Tetrahydro-3-furanyl N-((1S,2R)-1-benzyl-3-(4-cyano-2,2-diethylbutyl)[(4-methoxyphenyl)sulfonyl]amino-2-hydroxypropyl)carbamate], the Ki at HIV-1 protease was less than 1 nM. The IC50 in the experiment on HIV-1 (strain IIIB) fell in the range of 100 to 500 nM.

As to `COc1ccc(S(=O)(=O)N(C[C@@H](O)[C@H](Cc2ccccc2)NC(=O)O[C@H]2CCOC2)CC(C)(C)CCCC#N)cc1` [Compound 18, (3S)-Tetrahydro-3-furanyl N-((1S,2R)-1-benzyl-3-(5-cyano-2,2-dimethylpentyl)[(4-methoxyphenyl)sulfonyl]amino-2-hydroxypropyl)carbamate], at HIV-1 protease, the Ki was less than 1 nM. Also, the IC50 with HIV-1 (strain IIIB) (setting [1]) fell in the range of 100 to 500 nM.

For the compound `COc1ccc(S(=O)(=O)N(C[C@@H](O)[C@H](Cc2ccccc2)NC(=O)OC2COCOC2)CC(C)(C)CCC#N)cc1` [Compound 19, {(1S,2R)-1-Benzyl-3-[(4-cyano-2,2-dimethyl-butyl)-(4-methoxy-benzenesulfonyl)-amino]-2-hydroxy-propyl}-carbamic acid[1,3]dioxan-5-yl ester], the inhibition constant (Ki) on HIV-1 protease was less than 1 nM. Further, the IC50 in the experiment on HIV-1 (strain IIIB) (setting [1]) lay in the range of 100 to 500 nM.

`COc1ccc(S(=O)(=O)N(C[C@@H](O)[C@H](Cc2ccccc2)NC(=O)C(C)CS(C)(=O)=O)CC(C)(C)CCC#N)cc1` (stereo partly drawn) [Compound 22, 1N-(3-Methylsulfonylisobutyryl)-(1S,2R)-1-benzyl-3-(4-cyano-2,2-dimethylbutyl)[4-methoxyphenylsulfonyl]amino-2-hydroxypropyl amine]: the inhibition constant (Ki) at HIV-1 protease is less than 1 nM. In addition, the IC50 in the experiment on HIV-1 (strain IIIB) (setting [3]) is 100 to 500 nM.

On to `CC(C)(CCC#N)CN(C[C@@H](O)[C@H](Cc1ccccc1)NC(=O)O[C@H]1CO[C@H]2OCC[C@H]21)S(=O)(=O)c1ccc2c(c1)OCO2` [Compound 25, {(1S,2R)-3-[(Benzo[1,3]dioxole-5-sulfonyl)-(4-cyano-2,2-dimethyl-butyl)-amino]-1-benzyl-2-hydroxy-propyl}-carbamic acid (3R, 3aS, 6aR)hexahydro-furo[2,3-b]furan-3-yl ester], for which the Ki at HIV-1 protease is less than 1 nM. In the experiment on HIV-1 (strain IIIB) (setting [1]), the IC50 is no more than 100 nM.

Take `COc1ccc(S(=O)(=O)N(CCCCC#N)C[C@@H](O)[C@H](Cc2ccccc2)NC(=O)O[C@H]2CCOC2)cc1` [Compound 26, (3S)-Tetrahydro-3-furanyl N-((1S,2R)-1-benzyl-3-(4-cyanobutyl)[(4-methoxyphenyl)sulfonyl]amino-2-hydroxypropyl)carbamate]: the Ki at HIV-1 protease was less than 1 nM. In addition, in the experiment on HIV-1 (strain IIIB) (setting [1]), the concentration for half-maximal inhibition (IC50) is 100 to 500 nM.

On to `CC(C)(CCC#N)CN(C[C@@H](O)[C@H](Cc1ccccc1)NC(=O)OC1COCOC1)C(=O)OCc1ccccc1` [Compound 28, (4-Cyano-2,2-dimethyl-butyl)-[(2R,3S)-3-([1,3]dioxan-5-yloxycarbonylamino)-2-hydroxy-4-phenyl-butyl]-carbamic acid benzyl ester], for which, at HIV-1 protease, the Ki was less than 1 nM. In addition, the IC50 in the experiment with HIV-1 (strain IIIB) (setting [1]) lay within 100 to 500 nM.

`CC(=O)Nc1ccc(S(=O)(=O)N(C[C@@H](O)[C@H](Cc2ccccc2)NC(=O)O[C@H]2CO[C@H]3OCC[C@H]32)CC(C)(C)CCC#N)cc1` [Compound 29, {(1S,2R)-3-[(4-Acetylamino-benzenesulfonyl)-(4-cyano-2,2-dimethyl-butyl)-amino]-1-benzyl-2-hydroxy-propyl}-carbamic acid (3R,3aS,6aR)hexahydro-furo[2,3-b]furan-3-yl ester]: at HIV-1 protease, the Ki is less than 1 nM. Besides, in the experiment on HIV-1 (strain IIIB) (setting [1]), the IC50 is 100 to 500 nM.

As to `CC(=O)Nc1cc(S(=O)(=O)N(C[C@@H](O)[C@H](Cc2ccccc2)NC(=O)O[C@H]2CO[C@H]3OCC[C@H]32)CC(C)(C)CCC#N)ccc1F` [Compound 30, {(1S,2R)-3-[(3-Acetylamino-4-fluoro-benzenesulfonyl)-(4-cyano-2,2-dimethyl-butyl)-amino]-1-benzyl-2-hydroxy-propyl}-carbamic acid (3R,3aS,6aR)hexahydro-furo[2,3-b]furan-3-yl ester], the inhibitory constant (Ki) on HIV-1 protease was less than 1 nM. The IC50 in the experiment with HIV-1 (strain IIIB) (setting [1]) is no more than 100 nM.

Turning to `CC(=O)Nc1cccc(S(=O)(=O)N(C[C@@H](O)[C@H](Cc2ccccc2)NC(=O)O[C@H]2CO[C@H]3OCC[C@H]32)CC(C)(C)CCC#N)c1` [Compound 31, {(1S,2R)-3-[(3-Acetylamino-benzenesulfonyl)-(4-cyano-2,2-dimethyl-butyl)-amino]-1-benzyl-2-hydroxy-propyl}-carbamic acid (3R,3aS,6aR)hexahydro-furo[2,3-b]furan-3-yl ester], the Ki on HIV-1 protease was less than 1 nM. Moreover, the IC50 in the experiment on HIV-1 (strain IIIB) (setting [1]) was no more than 100 nM.

`CC(C)(CCC#N)CN(CC(O)C(Cc1ccccc1)NC(=O)OC1COC2OCCC12)S(=O)(=O)c1ccc(OCc2ccccc2)cc1` [Compound 32, {(1S,2R)-3-[(4-benzyloxybenzenesulfonyl)-(4-cyano-2,2-dimethyl-butyl)-amino]-1-benzyl-2-hydroxy-propyl}-carbamic acid (2R,3aS,6aR)hexahydro-furo[2,3-b]furan-3-yl ester]: on HIV-1 protease, the Ki is less than 1 nM. In the experiment on HIV-1 (strain IIIB) (setting [1]), the IC50 lay within 100 to 500 nM.

Take `CC(C)(CCC#N)CN(C[C@@H](O)[C@H](Cc1ccccc1)NC(=O)OC1COCOC1)S(=O)(=O)c1ccc(OCc2ccccc2)cc1` [Compound 33, {(1S,2R)-1-Benzyl-3-[(4-cyano-2,2-dimethyl-butyl)-(4-benzyloxybenzenesulfonyl)-amino]-2-hydroxy-propyl}-carbamic acid[1,3]dioxan-5-yl ester]: at HIV-1 protease, the Ki fell in the range of 10 to 100 nM. For the same compound, in the experiment with HIV-1 (strain IIIB) (setting [1]), the IC50 lay in the range of 500 to 1000 nM.

On to `CC(C)(CCC#N)CN(CC(O)C(Cc1ccccc1)NC(=O)OC1COC2OCCC12)S(=O)(=O)c1ccc(O)cc1` [Compound 35, {(1S,2R)-3-[(4-hydroxybenzenesulfonyl)-(4-cyano-2,2-dimethyl-butyl)-amino]-1-benzyl-2-hydroxy-propyl}-carbamic acid (2R,3aS,6aR)hexahydro-furo[2,3-b]furan-3-yl ester], for which the Ki on HIV-1 protease is less than 1 nM. The IC50 in the experiment on HIV-1 (strain IIIB) (setting [1]) is no more than 100 nM.

In the case of `CC(C)(CCC#N)CN(C[C@@H](O)[C@H](Cc1ccccc1)NC(=O)OC1COCOC1)S(=O)(=O)c1ccc2c(c1)OCO2` [Compound 36, {(1S,2R)-3-[(Benzo[1,3]dioxole-5-sulfonyl)-(4-cyano-2,2-dimethyl-butyl)-amino]-1-benzyl-2-hydroxy-propyl}-carbamic acid[1,3]dioxan-5-yl ester], at HIV-1 protease, the Ki is less than 1 nM. Moreover, the IC50 in the experiment with HIV-1 (strain IIIB) (setting [1]) is no more than 100 nM.

Take `CC(C)(CCC#N)CN(CC(O)C(Cc1ccccc1)NC(=O)OC1COC2OCCC12)S(=O)(=O)c1ccc2c(c1)OCCO2` (centres unmarked) [Compound 37]: the Ki at HIV-1 protease is less than 1 nM. For the same compound, the IC50 with HIV-1 (strain IIIB) (setting [1]) was no more than 100 nM.

Regarding `CNc1cccc(S(=O)(=O)N(CC(O)C(Cc2ccccc2)NC(=O)OC2COC3OCCC23)CC(C)(C)CCCC#N)c1` (centres unmarked) [Compound 38], the Ki on HIV-1 protease is less than 1 nM. The IC50 in the experiment with HIV-1 (strain IIIB) (setting [1]) was no more than 100 nM.

In the case of `CC(C)(CCCC#N)CN(CC(O)C(Cc1ccccc1)NC(=O)OC1COC2OCCC12)S(=O)(=O)c1ccc2c(c1)OCO2` (centres unmarked) [Compound 39], the Ki on HIV-1 protease was less than 1 nM. Besides, the IC50 was no more than 100 nM with HIV-1 (strain IIIB) (setting [1]) and 1 to 10 nM with HIV-1 (strain IIIB) (setting [2]).

Consider `CC(C)(CCCC#N)CN(CC(O)C(Cc1ccccc1)NC(=O)OC1COC2OCCC12)S(=O)(=O)c1ccc2c(c1)OCCO2` (centres unmarked) [Compound 40], for which the Ki at HIV-1 protease was less than 1 nM. Moreover, the half-maximal inhibitory concentration (IC50) in the experiment on HIV-1 (strain IIIB) (setting [1]) is no more than 100 nM.

For the origin of these results see US6617350B2, “Inhibitors of aspartyl protease” (priority 1999, dated 2003).
